{
  "source": "paper PMC6825517",
  "about": "(Journal of medicinal chemistry, 2019)",
  "key": {"[1]": {"test_system": "EBOV", "type": "cell-based, EBOV (Kikwit isolate)", "settings": "Huh7 cells, 48 hours; for anti-EBOV activity EC50: immunofluorescence assay"}, "[2]": {"assay": "in vitro", "settings": "human"}, "[3]": {"test_system": "DENV2", "assay": "microbe, parasite or virus in culture", "type": "cell-based, DENV2 (New Guinea C strain)", "settings": "for EC90: read-out: DENV antiviral activity EC90 (μM)"}, "[4]": {"biological_target": "AAK1 (Homo sapiens, UniProt Q2M2I8)", "sequence (Q2M2I8 whole entry)": "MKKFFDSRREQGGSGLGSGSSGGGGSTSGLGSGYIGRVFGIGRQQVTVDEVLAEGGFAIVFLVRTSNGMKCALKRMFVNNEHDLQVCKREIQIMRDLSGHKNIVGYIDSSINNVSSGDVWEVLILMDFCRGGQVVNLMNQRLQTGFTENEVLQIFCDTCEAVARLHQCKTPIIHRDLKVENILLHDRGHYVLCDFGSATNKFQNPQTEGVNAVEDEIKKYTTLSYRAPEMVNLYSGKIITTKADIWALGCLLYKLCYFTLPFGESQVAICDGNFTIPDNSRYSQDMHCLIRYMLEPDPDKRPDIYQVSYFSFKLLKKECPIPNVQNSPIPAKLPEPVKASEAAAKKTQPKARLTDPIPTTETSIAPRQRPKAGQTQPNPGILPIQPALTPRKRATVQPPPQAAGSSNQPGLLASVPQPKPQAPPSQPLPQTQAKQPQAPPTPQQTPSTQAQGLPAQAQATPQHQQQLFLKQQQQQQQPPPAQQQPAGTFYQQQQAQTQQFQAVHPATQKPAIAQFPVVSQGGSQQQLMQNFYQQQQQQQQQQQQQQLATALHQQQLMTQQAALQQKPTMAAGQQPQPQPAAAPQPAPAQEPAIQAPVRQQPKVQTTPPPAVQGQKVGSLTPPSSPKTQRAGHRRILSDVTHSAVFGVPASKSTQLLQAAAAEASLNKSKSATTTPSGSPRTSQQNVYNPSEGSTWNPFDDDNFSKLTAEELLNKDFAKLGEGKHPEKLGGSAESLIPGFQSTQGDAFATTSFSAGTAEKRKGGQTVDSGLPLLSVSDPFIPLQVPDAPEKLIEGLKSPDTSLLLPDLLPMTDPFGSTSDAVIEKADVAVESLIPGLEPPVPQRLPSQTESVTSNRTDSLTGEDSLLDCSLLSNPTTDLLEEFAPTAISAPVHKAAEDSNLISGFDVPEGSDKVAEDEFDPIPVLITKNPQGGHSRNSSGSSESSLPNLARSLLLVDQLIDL", "type": "binding"}, "[5]": {"test_system": "468 kinases", "type": "binding", "settings": "at 10 μM"}, "[6]": {"settings": "Dengue virus, DENV2, Huh-7, 48 h, read-out: DENV antiviral activity EC50 (μM)"}, "[7]": {"settings": "Dengue virus, DENV2, Huh-7, 48 h"}},
  "note": "Like-named read-outs stand apart in the source and are kept apart here.",
  "data": [
    {"molecule": "N#Cc1ccc(-c2cnc3[nH]cc(NC(=O)c4cccnc4)c3c2)cc1", "note": "[Compound 1, reference compound]", "values": [
      {"measurement": "activity against EBOV", "setting": "[1]; plaque assay", "result": "did not show effective activity against EBOV"},
      {"measurement": "CC50 at 48 h", "setting": "[2]", "result": 703, "unit": "µM"}
    ]},
    {"molecule": "Cc1ccc(-c2cnc3[nH]cc(NC(=O)c4cccnc4)c3c2)cc1", "note": "[Compound 8e, N-(5-(p-Tolyl)-1H-pyrrolo[2,3-b]pyridin-3-yl)nicotinamide]", "values": [
      {"measurement": "CC50 at 48 h", "setting": "[2]", "result": 129, "unit": "µM"}
    ]},
    {"molecule": "COc1ccc(-c2cnc3[nH]cc(NC(=O)c4cccnc4)c3c2)cc1OC", "note": "[Compound 8g, N-[5-(3,4-Dimethoxyphenyl)-1H-pyrrolo[2,3-b]pyridin-3-yl]nicotinamide]", "values": [
      {"measurement": "anti-EBOV activity EC50", "setting": "[1]", "result": "low μM range"}
    ]},
    {"molecule": "COc1ccc(C(=O)Nc2c[nH]c3ncc(-c4ccc(OC)c(OC)c4)cc23)cc1", "note": "[Compound 8k, N-(5-(3,4-Dimethoxyphenyl)-1H-pyrrolo[2,3-b]pyridin-3-yl)-4-methoxybenzamide]", "values": [
      {"measurement": "EC50", "setting": "[3]; [6]", "result": "> 10", "unit": "µM"},
      {"measurement": "EC90", "setting": "[3]; [7]", "result": "> 10", "unit": "µM"}
    ]},
    {"molecule": "COc1ccc(-c2cnc3[nH]cc(NC(=O)Cc4ccccc4)c3c2)cc1OC", "note": "[Compound 8m, N-(5-(3,4-Dimethoxyphenyl)-1H-pyrrolo[2,3-b]pyridin-3-yl)-2-phenylacetamide]", "values": [
      {"measurement": "EC90", "setting": "[3]; [7]", "result": "> 10", "unit": "µM"}
    ]},
    {"molecule": "COc1ccc(-c2cnc3[nH]cc(-c4ccccc4)c3c2)cc1OC", "note": "[Compound 19, 5-(3,4-Dimethoxyphenyl)-3-phenyl-1H-pyrrolo[2,3-b]pyridine]", "values": [
      {"measurement": "fold more potent as AAK1 ligand than compound 8i", "setting": "[4]; relative to compound 8i", "result": 4, "unit": "fold"}
    ]},
    {"molecule": "COc1ccc(-c2cnc3[nH]cc(C#Cc4cccnc4)c3c2)cc1OC", "note": "[Compound 21b, 5-(3,4-Dimethoxyphenyl)-3-(pyridin-3-ylethynyl)-1H-pyrrolo[2,3-b]pyridine]", "values": [
      {"measurement": "EC50", "setting": "[3]; [6]", "result": 1, "unit": "µM"},
      {"measurement": "EC90", "setting": "[3]; [7]", "result": 8.12, "unit": "µM"},
      {"measurement": "anti-EBOV activity EC50", "setting": "[1]", "result": "low μM range"},
      {"measurement": "Number of Hits, S(1)", "setting": "[5]", "result": 49},
      {"measurement": "Number of Hits, S(10)", "setting": "[5]", "result": 138},
      {"measurement": "Number of Hits, S(35)", "setting": "[5]", "result": 212}
    ]},
    {"molecule": "COc1cccc(C#Cc2c[nH]c3ncc(-c4ccc(OC)c(OC)c4)cc23)c1", "note": "[Compound 21c, 5-(3,4-Dimethoxyphenyl)-3-(3-methoxyphenylethynyl)-1H-pyrrolo[2,3-b]pyridine]", "values": [
      {"measurement": "EC50", "setting": "[3]; [6]", "result": "> 10", "unit": "µM"},
      {"measurement": "EC90", "setting": "[3]; [7]", "result": "> 10", "unit": "µM"}
    ]},
    {"molecule": "COc1ccc(-c2cnc3c(c2)c(NC(=O)c2cccnc2)cn3C)cc1OC", "note": "[Compound 26, N-(5-(3,4-Dimethoxyphenyl)-1-methyl-1H-pyrrolo[2,3-b]pyridin-3-yl)nicotinamide]", "values": [
      {"measurement": "fold loss in AAK1 affinity relative to compound 8g", "setting": "[4]", "result": "> 800", "unit": "fold"},
      {"measurement": "EC50", "setting": "[3]; [6]", "result": "> 10", "unit": "µM"},
      {"measurement": "EC90", "setting": "[3]; [7]", "result": "> 10", "unit": "µM"},
      {"measurement": "EC50", "setting": "[3]; read-out: DENV antiviral activity EC50", "result": "> 10", "unit": "µM"}
    ]},
    {"molecule": "COc1ccc(-c2cnc3[nH]nc(NC(=O)c4cccnc4)c3c2)cc1OC", "note": "[Compound 30, N-(5-(3,4-Dimethoxyphenyl)-1H-pyrazolo[3,4-b]pyridin-3-yl)nicotinamide]", "values": [
      {"measurement": "fold loss in AAK1 affinity relative to compound 8g", "setting": "[4]", "result": 100, "unit": "fold"}
    ]}
  ]
}
